Common to all, as to assay: NCI anticancer screen, dose series, 48 h
Experiment [1] deals with SF-295.
Experiment [2] concerns OVCAR-5.
In experiment [3] the test system is OVCAR-4.
Experiment [4] concerns 786-0.
For experiment [5], the system named is SN12C.
Experiment [6] concerns MDA-MB-231.
Experiment [7] has as its system OVCAR-3.
For experiment [8], the system named is U-251.
For experiment [9], the system named is HT-29.
Experiment [10] deals with UACC-257.
Experiment [11] relates to UACC-62.
Experiment [12] concerns SNB-19.
Experiment [13] relates to HOP-62.
The test system of experiment [14] is A549.
The test system of experiment [15] is HL-60.
For experiment [16], the system named is SR.
In experiment [17] the test system is SK-MEL-28.
For experiment [18], the system named is Malme-3M.
Experiment [19] has as its system HCT-15.
For experiment [20], the system named is IGROV-1.

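Briefly, cells in 96-well plates were exposed to five compound concentrations for 48 h, and endpoints were estimated by linear interpolation. GI50 is the concentration that inhibits growth by half.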 Activity calls are given as the source filed them. No stated cut-off is given here; in the data, active = GI50 up to about 1.1 µM and inactive = higher.

`COc1ccc(N2C(=O)CS(=O)(=O)C2c2cccc(Oc3ccccc3)c2)cc1` (centres undefined): the GI50 in experiment [1] is 3.94 µM (inactive); in [2] it was 7.73 µM (inactive); in experiment [3], 5.79 µM (inactive); in experiment [4] it was 4.7 µM (inactive); in experiment [5], 4.65 µM (inactive); in [6], 2.69 µM (inactive). The GI50 was 4.03 µM (inactive) in [7]; 4.66 µM (inactive) in experiment [8]; 3.68 µM (inactive) in experiment [9]; 2.74 µM (inactive) in experiment [10]; 2.21 µM (inactive) in [11]; 5.53 µM (inactive) in [12]. Moreover, the GI50 in experiment [13] was 7.53 µM (inactive); in experiment [14], 6.58 µM (inactive); in [15], 3.32 µM (inactive); in [16], 1.92 µM (inactive); in [17], 16.2 µM (inactive); in experiment [18], 7.74 µM (inactive). The GI50 in experiment [19] is 3.33 µM.

On to `CC(=O)c1ccc(N2CCN(C3=C(Cl)C(=O)c4c(O)ccc(O)c4C3=O)CC2)cc1`, for which the GI50 in [1] was 18.8 µM (inactive); in experiment [2], 18.9 µM (inactive); in experiment [3] it was 3.14 µM (inactive); in experiment [4], 14.2 µM (inactive); in [6], 2.51 µM (inactive); in [7], 5.19 µM (inactive). The GI50 in [8] was 3.4 µM (inactive); in experiment [9], 2.12 µM (inactive); in experiment [10], 7.6 µM (inactive); in [11], 2.74 µM (inactive); in [12], 20.7 µM (inactive); in experiment [20], 4 µM (inactive). The GI50 is 8.95 µM (inactive) in [13]; 17.5 µM (inactive) in experiment [14]; 0.271 µM (active) in experiment [15]; 2 µM (inactive) in experiment [16]; 5.21 µM (inactive) in [17]; 11.4 µM (inactive) in [18]. Also, the GI50 in experiment [19] was 8.79 µM.

As to `CO[C@H](c1ccccc1)[C@H](O)[C@](O)(c1ccccc1)P(=O)(OC)OC`, the GI50 in experiment [1], in experiment [2], in experiment [3], in [4], in experiment [5] and in [6] was > 100 µM (inactive) each time. The GI50 in [7], in experiment [8], in experiment [9], in [10], in experiment [11] and in experiment [12] was > 100 µM (inactive) each time. Also, the GI50 in experiment [20], in experiment [14], in experiment [15], in [16], in experiment [17] and in [18] was > 100 µM (inactive) throughout. The same molecule showed a GI50 in experiment [19] above 100 µM.

Regarding `O=C1/C(=C/c2ccc(Br)s2)NC(=S)N1CN1CCOCC1`, the GI50 in experiment [1] was 95.5 µM (inactive); in [2], 61.1 µM (inactive); in [3] it was 61.9 µM (inactive); in [4], 43 µM (inactive); in experiment [5], 45.4 µM (inactive); in experiment [6], 99.8 µM (inactive). Also, the GI50 in experiment [7] was 59.3 µM (inactive); in experiment [8], 43 µM (inactive); in experiment [9], 35.2 µM (inactive); in experiment [10] it was 66.8 µM (inactive); in experiment [11], 20.2 µM (inactive); in experiment [12], > 100 µM (inactive). The GI50 in experiment [20] is 57.4 µM (inactive); in experiment [13] it was > 100 µM (inactive); in [15] it was 23.9 µM (inactive); in [16] it was 21.5 µM (inactive); in experiment [17], 40.4 µM (inactive); in [18], > 100 µM (inactive). In addition, the GI50 in [19] is 30.2 µM.

As to `CSc1nc(SC)c2c(C)cn(Cc3ccccc3)c2n1`, the GI50 in experiment [1], in experiment [2], in experiment [3], in experiment [4], in experiment [5] and in experiment [6] was > 100 µM (inactive) throughout. Moreover, the GI50 in experiment [7] is > 100 µM (inactive); in [8], > 100 µM (inactive); in experiment [9], 41.7 µM (inactive); in experiment [11], > 100 µM (inactive); in [12], > 100 µM (inactive); in experiment [20] it was > 100 µM (inactive). For the same molecule, the GI50 in experiment [13] was > 100 µM (inactive); in experiment [14], > 100 µM (inactive); in experiment [15] it was 34 µM (inactive); in [16], 32.4 µM (inactive); in experiment [17], > 100 µM (inactive); in experiment [18] it was > 100 µM (inactive). Further, the GI50 in experiment [19] is 70.1 µM.

Consider `COc1ccc2c(c1)O[C@@H]1[C@@H](OC3OC(CO)C(O)C(O)C3O)Oc3cc(OC)c(OC)cc3[C@]1(O)C2=O` (some centres undefined), for which the GI50 in experiment [1], in experiment [2], in experiment [3], in experiment [4], in [5] and in [6] was > 100 µM (inactive) in each case. The GI50 in experiment [7], in [8], in experiment [9], in experiment [10], in [11] and in [12] was > 100 µM (inactive) throughout. In addition, the GI50 in experiment [20] is > 100 µM (inactive); in experiment [13] it was > 100 µM (inactive); in experiment [14], > 100 µM (inactive); in experiment [15], 1.11 µM (active); in experiment [16], > 100 µM (inactive); in experiment [17], 25.8 µM (inactive). Moreover, the GI50 in [18] is > 100 µM (inactive); in experiment [19], above 100 µM.

As for `Cc1ccc(Nc2nc3[nH]ccc3c(=O)[nH]2)cc1`, the GI50 was 72.9 µM (inactive) in experiment [1]; > 100 µM (inactive) in experiment [2]; > 100 µM (inactive) in [3]; > 100 µM (inactive) in experiment [4]; > 100 µM (inactive) in experiment [5]; 52.7 µM (inactive) in experiment [6]. Moreover, the GI50 is 33 µM (inactive) in experiment [7]; > 100 µM (inactive) in experiment [8]; 61.9 µM (inactive) in experiment [9]; > 100 µM (inactive) in [10]; 93.8 µM (inactive) in experiment [11]; 96.2 µM (inactive) in [12]. For the same molecule, the GI50 was > 100 µM (inactive) in experiment [20]; > 100 µM (inactive) in experiment [13]; 66.1 µM (inactive) in experiment [14]; 75.5 µM (inactive) in experiment [15]; > 100 µM (inactive) in experiment [16]; > 100 µM (inactive) in experiment [18]. For the same molecule, the GI50 in experiment [19] was 87.5 µM.

Regarding `O=C(CN1CCN(c2ccccn2)CC1)N1CCCn2c1nc1ccccc1c2=O`, the GI50 in experiment [1], in experiment [2], in [3], in [4], in [5] and in experiment [6] was > 100 µM (inactive) throughout. For the same molecule, the GI50 in experiment [7], in [8], in experiment [9], in [10], in [11] and in experiment [12] was > 100 µM (inactive) throughout. For the same molecule, the GI50 in experiment [20], in experiment [13], in experiment [14], in experiment [15], in experiment [16] and in experiment [18] was > 100 µM (inactive) each time. Further, the GI50 in [19] is above 100 µM.

Turning to `CCN(CC)c1c(-c2c(OC(C)C)c(=O)c2=O)c(=O)n2ccsc2c1OC(C)=O`, the GI50 in experiment [1], in [2], in [3], in experiment [4], in experiment [5] and in experiment [6] was > 100 µM (inactive) in each case. The GI50 in [7], in experiment [8], in experiment [9], in experiment [10], in experiment [11] and in experiment [12] was > 100 µM (inactive) in each case. The GI50 in experiment [20] was 89.9 µM (inactive); in experiment [13], > 100 µM (inactive); in experiment [15] it was 85.3 µM (inactive); in [16] it was > 100 µM (inactive); in experiment [17] it was > 100 µM (inactive); in experiment [18], 39.7 µM (inactive). The GI50 in experiment [19] was above 100 µM.

For the molecule `OCCCCCNc1nc(O)c2[nH]cnc2n1`, the GI50 in [1] was > 10 µM (inactive); in experiment [2] it was > 100 µM (inactive); in [3] it was > 100 µM (inactive); in experiment [4] it was > 100 µM (inactive); in experiment [5], > 100 µM (inactive); in experiment [6], > 100 µM (inactive). Moreover, the GI50 in experiment [7], in experiment [8], in [9], in experiment [10], in experiment [11] and in experiment [12] was > 100 µM (inactive) in each case. Also, the GI50 in experiment [20] was > 100 µM (inactive); in experiment [13], > 100 µM (inactive); in [14], > 10 µM (inactive); in [15], > 100 µM (inactive); in experiment [16], > 100 µM (inactive); in [18], > 100 µM (inactive). This molecule gave a GI50 in experiment [19] above 100 µM.

As for `OC(c1ccc(Cl)cc1)(c1ccc(Cl)cc1)c1cncnc1`, the GI50 in experiment [1] is 19.1 µM (inactive); in experiment [2], 18.9 µM (inactive); in experiment [3], 14.7 µM (inactive); in experiment [5], 26.7 µM (inactive); in experiment [6] it was 18.6 µM (inactive); in experiment [7] it was 17.1 µM (inactive). Also, the GI50 was 19.3 µM (inactive) in experiment [8]; 16.6 µM (inactive) in experiment [9]; 19.2 µM (inactive) in experiment [10]; 14.8 µM (inactive) in experiment [11]; 22.5 µM (inactive) in experiment [12]; > 10 µM (inactive) in experiment [20]. Further, the GI50 in experiment [13] is 18.6 µM (inactive); in experiment [15] it was > 10 µM (inactive); in experiment [16] it was 31.7 µM (inactive); in experiment [17] it was 18.7 µM (inactive); in experiment [18] it was 33.7 µM (inactive); in experiment [19], 19 µM.
